From ChEMBL document CHEMBL3098061, “Design and synthesis of an aminopiperidine series of γ-secretase modulators” (Bioorg Med Chem Lett, 2014) come the findings set out here.

Converted amounts (≈) assume the structure as drawn.

The subject of one data set is Mus musculus. Description: Reduction in amyloid beta42 production in wild type mouse hippocampus at 100 mg/kg, po. The class given is functional. Also noted: scale not given: the % may be the effect or the level left.
Conditions: not given
Take `COc1cc(C(=O)N[C@H]2CCCN(Cc3ccc(Br)cc3)C2)ccc1-n1cnc(C)c1`: the Activity amounted to 55%.

System in a further data set: not listed separately
Description: Modulation of gamma-secretase in rat fetus primary neurons assessed as inhibition of amyloid beta42 production after 1 to 3 days by ELISA.
Conditions: not given
Background: An ELISA detects its analyte on a solid surface through an enzyme-linked reagent.
Usually IC50 stands for the concentration at which inhibition is half-maximal. Take `COc1cc(C(=O)N[C@H]2CCCN(Cc3ccc(Br)cc3)C2)ccc1-n1cnc(C)c1`: the IC50 worked out at 250 nM.

System in the next data set: not listed separately
Description: Aqueous solubility of the compound at pH 7.4. The format is physicochemical.
Conditions: not given
For orientation: solubility means how much of the substance goes into solution per volume. `COc1cc(C(=O)N[C@H]2CCCN(Cc3ccc(Br)cc3)C2)ccc1-n1cnc(C)c1`: the concentration in solution (solubility) was 8 µg/mL (≈ 16.5 µM).

In the next data set the test system is Mus musculus. In words: Reduction in amyloid beta42 production in wild type mouse plasma at 100 mg/kg, po. The format is functional. Also noted: scale not given: the % may be the effect or the level left.
Conditions: not given
`COc1cc(C(=O)N[C@H]2CCCN(Cc3ccc(Br)cc3)C2)ccc1-n1cnc(C)c1` yielded an Activity of 66%.

System in the next data set: not listed separately
Description: Permeability of the compound at pH 7.4 by PAMPA. The format is ADME. Conditions: read-out: permeability.
Regarding `COc1cc(C(=O)N[C@H]2CCCN(Cc3ccc(Br)cc3)C2)ccc1-n1cnc(C)c1`, the Papp stood at 50 ×10⁻⁶ cm/s.

For a further data set, the species on record is Rattus norvegicus. Description: Modulation of gamma-secretase in rat fetus primary neurons assessed as inhibition of amyloid beta42 production at 2.5 uM after 1 to 3 days by ELISA.
Conditions: not given
A word on the inhibition: it is the change of the read-out against control, counted positive when it falls. With `COc1cc(C(=O)NC2CCCN(C(=O)NCc3ccccc3)C2)ccc1-n1cnc(C)c1` (racemic), the inhibition is 25%. Same read-out and setting: next, `COc1cc(C(=O)N[C@H]2CCCN(C(=O)c3ccc(Br)cc3)C2)ccc1-n1cnc(C)c1`: 64%; `COc1cc(C(=O)N2CCCC(NCc3cccc(C(F)(F)F)c3)C2)ccc1-n1cnc(C)c1` (configuration not stated): 17%. For the compound `COc1cc(C(=O)N[C@H]2CCCN(Cc3ccc(C(F)(F)F)cc3)C2)ccc1-n1cnc(C)c1`, the inhibition was 92%.

On to `COc1cc(C(=O)N[C@@H]2CCCN(Cc3ccc(C)cc3)C2)ccc1-n1cnc(C)c1`, for which the inhibition worked out at 36%.

`COc1cc(C(=O)N2CCC(NCc3cccc(C(F)(F)F)c3)C2)ccc1-n1cnc(C)c1` (configuration not stated): the inhibition was 39%. Same read-out and setting: next, `COc1cc(C(=O)NC2CC3CCC(C2)N3Cc2cccc(C(F)(F)F)c2)ccc1-n1cnc(C)c1` (configuration not stated): 40%. In the case of `COc1ccc(CN2CCCC(NC(=O)c3ccc(-n4cnc(C)c4)c(OC)c3)C2)cc1` (racemic), the inhibition stood at 45%.

Take `COc1cc(C(=O)N[C@@H]2CCCN(Cc3ccc(Br)cc3)C2)ccc1-n1cnc(C)c1`: the inhibition was found to be 55%. The same measure, in the same setting: next, `COc1cc(C(=O)N2CC3CC2CN3Cc2cccc(C(F)(F)F)c2)ccc1-n1cnc(C)c1` (configuration not stated): 51%; `COc1cc(C(=O)N(C)C2CCCN(Cc3cccc(C(F)(F)F)c3)C2)ccc1-n1cnc(C)c1` (configuration not stated): < 1%.

With `COc1cc(C(=O)N2C3CCC2CN(Cc2cccc(C(F)(F)F)c2)C3)ccc1-n1cnc(C)c1`, the inhibition was 19%. `COc1cc(C(=O)N[C@H]2CCCN(C(=O)c3ccc(C(F)(F)F)cc3)C2)ccc1-n1cnc(C)c1`: the inhibition was found to be 34%. The same measure, in the same setting: the value for `COc1cc(C(=O)NC2CCCN(Cc3ccccc3C)C2)ccc1-n1cnc(C)c1` (racemic) was 62%; that for `COc1cc(C(=O)N[C@H]2CCCN(Cc3ccc(Br)cc3)C2)ccc1-n1cnc(C)c1` was 97%; that for `COc1cc(C(=O)N[C@H]2CCCN(C(=O)c3ccc(C)cc3)C2)ccc1-n1cnc(C)c1` was 55%. Turning to `COc1cc(C(=O)NC2CCCN(Cc3ccccc3)C2)ccc1-n1cnc(C)c1` (racemic), the inhibition was determined as 37%.

`COc1cc(C(=O)N[C@H]2CCCN(Cc3ccc(C)cc3)C2)ccc1-n1cnc(C)c1`: the inhibition worked out at 90%. On the same count and under the same terms, next, `COc1cc(C(=O)NC2CCCN(Cc3ccc(Br)cc3)C2)ccc1-n1cnc(C)c1` (racemic): 93%; `COc1cc(C(=O)N[C@H]2CCCN(Cc3cccc(C(F)(F)F)c3)C2)ccc1-n1cnc(C)c1`: 82%; `COc1cc(C(=O)NC2CCN(Cc3cccc(C(F)(F)F)c3)CC2)ccc1-n1cnc(C)c1`: 78%. Same read-out and setting: the value for `COc1cc(C(=O)NC2CCCN(Cc3cccc(C)c3)C2)ccc1-n1cnc(C)c1` (racemic) was 54%; that for `COc1cc(C(=O)N[C@@H]2CCCN(Cc3cccc(C(F)(F)F)c3)C2)ccc1-n1cnc(C)c1` was 72%; that for `COc1cc(C(=O)N[C@@H]2CCCN(Cc3ccc(C(F)(F)F)cc3)C2)ccc1-n1cnc(C)c1` was 57%.

Turning to `COc1cc(C(=O)NC2CCCN(C(=O)NCc3ccc(C)cc3)C2)ccc1-n1cnc(C)c1` (racemic), the inhibition came out at 28%. As to `COc1cc(C(=O)N(C(C)C)C2CCCN(Cc3cccc(C(F)(F)F)c3)C2)ccc1-n1cnc(C)c1` (configuration not stated), the inhibition is < 1%. For the compound `COc1cc(C(=O)NC2CCN(Cc3cccc(C(F)(F)F)c3)C2)ccc1-n1cnc(C)c1` (configuration not stated), the inhibition worked out at 31%. Same read-out and setting: the value for `COc1cc(C(=O)NC2CCCN(Cc3ccc(C(F)(F)F)cc3)C2)ccc1-n1cnc(C)c1` (racemic) was 90%. Consider `COc1cc(C(=O)NC2CCCN(Cc3ccc(C)cc3)C2)ccc1-n1cnc(C)c1` (racemic), for which the inhibition was 82%. On to `CCN(C(=O)c1ccc(-n2cnc(C)c2)c(OC)c1)C1CCCN(Cc2cccc(C(F)(F)F)c2)C1` (configuration not stated), for which the inhibition is < 1%. As for `COc1cc(C(=O)NC2CCCN(C(=O)NCc3ccc(Br)cc3)C2)ccc1-n1cnc(C)c1` (racemic), the inhibition came to 47%.

With `COc1cc(C(=O)N2CCN(Cc3cccc(C(F)(F)F)c3)CC2)ccc1-n1cnc(C)c1`, the inhibition was determined as 18%.
